Source: patent US20230365537A1, “POLO LIKE KINASE 4 INHIBITORS” (ORIC Pharmaceuticals, Inc., priority 2021, published 2023)
pIC50: −log10 of the molar value.

Legend:
[1] = test system: CHP-134 cells; assay: CHP134 CellTiter-Glo (CTG) Assay; format: cell-based; details: Homo sapiens, CHP-134, 120 h, 5 days, viable cells by CellTiter-Glo
Protocol: Cells were seeded (200 cells/well) in 384-well plates for 16 hours. On day two, nine serial 1:3 compound dilutions were made in DMSO in a 96-well plate. The compounds were then further diluted into growth media using a BRAVO robot (Agilent, Santa Clara, CA). The diluted compounds were then added to quadruplicate wells in the 384-well cell plate and incubated at 37° C. and 5% CO2. After 5 days, relative numbers of viable cells were measured by luminescence using CellTiter-Glo® (Promega) according to the manufacturer’s instructions and read on a SPARK Multimode Microplate Reader (Tecan, Mannedorf Switzerland). The IC50 calculations for the values reported in Table 2 were carried out using Prism 6.0 software (GraphPad, San Diego).

[2] = target: human recombinant Aurora B (Homo sapiens (Human), UniProt Q96GD4); assay: Aurora B Kinase Biochemical Assay (ADP-Glo); details: ratio of Aurora B IC50 to PLK4 IC50 (selectivity)
Sequence of human recombinant Aurora B (Q96GD4 whole entry): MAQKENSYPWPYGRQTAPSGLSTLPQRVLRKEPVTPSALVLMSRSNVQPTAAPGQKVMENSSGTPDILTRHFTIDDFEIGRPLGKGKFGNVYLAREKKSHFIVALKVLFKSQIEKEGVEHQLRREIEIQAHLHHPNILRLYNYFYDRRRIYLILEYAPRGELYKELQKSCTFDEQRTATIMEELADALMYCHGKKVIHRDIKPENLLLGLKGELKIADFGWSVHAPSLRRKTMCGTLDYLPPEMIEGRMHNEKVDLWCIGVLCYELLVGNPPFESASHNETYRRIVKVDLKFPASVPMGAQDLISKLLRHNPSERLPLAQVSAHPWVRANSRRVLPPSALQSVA
Summary of the method: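 Recombinant human Aurora B (20 nM in pH 7.5 HEPES buffer with MgCl2, EGTA, DTT, Brij-35, BSA) preincubated with compound 15 min at RT. ADP formed quantified by ADP-Glo luminescence after ATP depletion (40 min) and detection (30 min). IC50 from four-parameter non-linear regression.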

[3] = target: human recombinant Aurora A (Homo sapiens (Human), UniProt O14965); assay: Aurora A Kinase Biochemical Assay (ADP-Glo); details: ratio of Aurora A IC50 to PLK4 IC50 (selectivity)
Sequence of human recombinant Aurora A (O14965 whole entry): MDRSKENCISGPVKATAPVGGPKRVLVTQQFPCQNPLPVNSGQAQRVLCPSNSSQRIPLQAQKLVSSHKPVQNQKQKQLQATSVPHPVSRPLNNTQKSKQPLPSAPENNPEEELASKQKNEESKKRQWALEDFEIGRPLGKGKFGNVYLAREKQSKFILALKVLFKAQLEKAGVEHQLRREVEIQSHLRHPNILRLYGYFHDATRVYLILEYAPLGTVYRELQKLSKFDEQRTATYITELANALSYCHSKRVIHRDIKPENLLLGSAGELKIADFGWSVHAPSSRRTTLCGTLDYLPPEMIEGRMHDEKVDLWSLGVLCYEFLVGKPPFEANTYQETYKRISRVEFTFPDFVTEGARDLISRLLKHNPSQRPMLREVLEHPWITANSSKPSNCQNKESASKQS

[4] = target: human recombinant PLK4 (Homo sapiens (Human), UniProt O00444); assay: PLK4 Biochemical Assay (ADP-Glo); details: 0.5 nM PLK4, 8.0 µM ATP, 4.7 µM MBP, 6 hours at RT
Sequence of human recombinant PLK4 (O00444 whole entry): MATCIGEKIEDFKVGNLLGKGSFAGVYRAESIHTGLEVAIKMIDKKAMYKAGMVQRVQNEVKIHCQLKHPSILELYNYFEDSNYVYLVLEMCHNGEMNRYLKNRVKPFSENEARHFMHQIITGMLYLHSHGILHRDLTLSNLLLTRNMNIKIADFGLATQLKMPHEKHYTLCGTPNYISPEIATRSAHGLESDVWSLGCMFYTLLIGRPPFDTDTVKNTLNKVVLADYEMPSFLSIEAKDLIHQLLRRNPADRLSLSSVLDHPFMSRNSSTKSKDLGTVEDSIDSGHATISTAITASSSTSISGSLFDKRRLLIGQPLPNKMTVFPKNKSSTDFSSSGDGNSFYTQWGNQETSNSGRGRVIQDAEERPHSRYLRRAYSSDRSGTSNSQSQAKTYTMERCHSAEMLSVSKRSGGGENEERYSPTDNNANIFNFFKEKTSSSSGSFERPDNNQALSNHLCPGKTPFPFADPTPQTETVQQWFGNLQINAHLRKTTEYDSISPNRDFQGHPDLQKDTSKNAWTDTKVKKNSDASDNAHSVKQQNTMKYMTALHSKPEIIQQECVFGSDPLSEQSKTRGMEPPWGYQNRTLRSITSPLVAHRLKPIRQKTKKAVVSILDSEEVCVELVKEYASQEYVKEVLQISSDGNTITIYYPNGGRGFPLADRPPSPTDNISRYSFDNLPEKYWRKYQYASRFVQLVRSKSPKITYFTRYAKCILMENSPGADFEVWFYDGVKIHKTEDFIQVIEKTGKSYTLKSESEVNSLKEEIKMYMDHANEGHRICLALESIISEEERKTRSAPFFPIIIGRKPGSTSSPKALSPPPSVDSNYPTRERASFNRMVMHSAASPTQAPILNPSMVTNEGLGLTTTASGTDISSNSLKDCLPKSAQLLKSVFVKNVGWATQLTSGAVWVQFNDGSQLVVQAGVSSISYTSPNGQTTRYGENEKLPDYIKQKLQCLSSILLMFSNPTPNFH
Summary of the method: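 Recombinant human PLK4 (added at 1.0 nM) was preincubated 15 min at RT with compound in 50 mM HEPES pH 7.5, 10 mM MgCl2, 1 mM EGTA, 1 mM DTT, 0.01% Brij-35, 0.01% BSA. ADP formed was detected by ADP-Glo luminescence (40 min ATP depletion, 30 min detection). IC50 came from a four-parameter fit.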

Row | SMILES | [Aurora B IC50 (nM)]/[PLK4 IC50 (nM)] [2] | [Aurora A IC50 (nM)]/[PLK4 IC50 (nM)] [3] | pIC50 [4] | pIC50 [1]
1 | COc1ccc2c(c1)[C@]1(C[C@H]1c1ccc3c(Nc4cc(C)ccc4OC)n[nH]c3c1)C(=O)N2 [Example 148, (1R,2S)-5′-methoxy-2-[3-(2-methoxy-5-methylanilino)-1H-indazol-6-yl]spiro[cyclopropane-1,3′-indol]-2′(1′H)-one] | 338.8646 | 397.3799 | 8.16 | 5.45
2 | COc1ccc2c(c1)[C@]1(C[C@H]1c1ccc3c(Nc4ccc(N5CCCC5=O)nc4OC)n[nH]c3c1)C(=O)N2 [Example 215, (1R,2S)-5′-methoxy-2-(3-{[2-methoxy-6-(2-oxopyrrolidin-1-yl)pyridin-3-yl]amino}-1H-indazol-6-yl)spiro[cyclopropane-1,3′-indol]-2′(1′H)-one] | 53.57 | 986.6539 | 8.68 | 6.72
3 | COc1ccc2c(c1)[C@]1(C[C@H]1c1ccc3c(Nc4ncnc(N5C[C@@H](C)O[C@@H](C)C5)c4OC)n[nH]c3c1)C(=O)N2 [Example 52, (lR,2S)-2-[3-({6-[(2R,6S)-2,6-dimethylmorpholin-4-yl]-5-methoxypyrimidin-4-yl}amino)-1H-indazol-6-yl]-5′-methoxyspiro[cydopropane-1,3′-indol]-2′(1′H)-one] | 55.0706 | 2009.699 | 8.15 | 5.65
4 | COc1ccc2c(c1)[C@]1(C[C@H]1c1ccc3c(Nc4cc(C)cnc4OC)n[nH]c3c1)C(=O)N2 [Example 89, (1R,2S)-5′-methoxy-2-{3-[(2-methoxy-5-methylpyridin-3-yl)amino]-1H-indazol-6-yl}spiro[cyclopropane-1,3′-indol]-2′(1′H)-one] | 314.3289 | 1736.729 | 8.64 | 5.00
5 | COc1ccc2c(c1)[C@]1(C[C@H]1c1ccc3c(Nc4ccc5c(c4OC)CN(C)C5=O)n[nH]c3c1)C(=O)N2 [Example 266, (1R,2S)-5′-methoxy-2-{3-[(4-methoxy-2-methyl-1-oxo-2,3-dihydro-1H-isoindol-5-yl)amino]-1H-indazol-6-yl}spiro[cyclopropane-1,3′-indol]-2′(1′H)-one] | 154.9914 | 723.9761 | 8.63 | 6.10
6 | COc1ccc2c(c1)[C@]1(C[C@H]1c1ccc3c(Nc4nc(C)ncc4OCC(F)(F)F)n[nH]c3c1)C(=O)N2 [Example 149, (1R,2S)-5′-methoxy-2-(3-{[2-methyl-5-(2,2,2-trifluoroethoxy)pyrimidin-4-yl]amino}-1H-indazol-6-yl)spiro[cyclopropane-1,3′-indol]-2′(1′H)-one] | 879.4799 | 3193.7837 | 8.50 | 6.07
7 | COc1ccc2c(c1)[C@]1(C[C@H]1c1ccc3c(Nc4nc(C)nc5c4CCC5)n[nH]c3c1)C(=O)N2 [Example 159, (1R,2S)-5′-methoxy-2-{3-[(2-methyl-6,7-dihydro-5H-cyclopenta[d]pyrimidin-4-yl)amino]-1H-indazol-6-yl}spiro[cyclopropane-1,3′-indol]-2′(1′H)-one] | 58.0530 | 309.7350 | 8.71 | 5.89
8 | COc1ccc2c(c1)[C@]1(C[C@H]1c1ccc3c(Nc4nc(OC)ncc4C)n[nH]c3c1)C(=O)N2 [Example 187, (1R,2S)-5′-methoxy-2-{3-[(2-methoxy-5-methylpyrimidin-4-yl)amino]-1H-indazol-6-yl}spiro[cyclopropane-1,3′-indol]-2′(1′H)-one] | 112.2793 | 109.5814 | 8.21 | 6.25

Now from value to molecule, other results behind:

Row | [Aurora B IC50 (nM)]/[PLK4 IC50 (nM)] [2] | [Aurora A IC50 (nM)]/[PLK4 IC50 (nM)] [3] | pIC50 [4] | SMILES | pIC50 [1]
9 | 340.4602 | 813.6599 | 8.87 | CCS(=O)(=O)c1cnc(Nc2n[nH]c3cc([C@@H]4C[C@@]45C(=O)Nc4ccc(OC)cc45)ccc23)c(OC)c1 [Example 228, (1R,2S)-2-(3-{[5-(Ethanesulfonyl)-3-methoxypyridin-2-yl]amino}-1H-indazol-6-yl)-5′-methoxyspiro[cyclopropane-1,3′-indol]-2′(1′H)-one] | 6.74
10 | 68.4539 | 1151.3716 | 9.10 | COc1ccc2c(c1)[C@]1(C[C@H]1c1ccc3c(Nc4ccc(C(=O)N(C)C)nc4OC)n[nH]c3c1)C(=O)N2 [Example 166, 6-methoxy-5-({6-[(1R,2S)-5′-methoxy-2′-oxo-1′,2′-dihydrospiro[cyclopropane-1,3′-indol]-2-yl]-1H-indazol-3-yl}amino)-N,N-dimethylpyridine-2-carboxamide] | 7.09
11 | 123.6097 | 1254.4596 | 8.72 | COc1ccc2c(c1)[C@]1(C[C@H]1c1ccc3c(Nc4nc(C)nc5c4OCC5)n[nH]c3c1)C(=O)N2 [Example 153, (1R,2S)-5′-methoxy-2-{3-[(2-methyl-6,7-dihydrofuro[3,2-d]pyrimidin-4-yl)amino]-1H-indazol-6-yl}spiro[cyclopropane-1,3′-indol]-2′(1′H)-one] | 6.06
12 | 3151.017 | 39123.63 | 8.89 | COc1ccc2c(c1)[C@]1(C[C@H]1c1ccc3c(Nc4nc(C(C)C)nc(N5CCS(=O)(=O)CC5)c4OC)n[nH]c3c1)C(=O)N2 [Example 84, (1R,2S)-2-(3-((6-(1,1-dioxidothiomorpholino)-2-isopropyl-5-methoxypyrimidin-4-yl)amino)-1H-indazol-6-yl)-5′-methoxyspiro[cyclopropane-1,3′-indolin]-2′-one] | 6.40
13 | 405.2156 | 2006.018 | 9.00 | COc1ccc2c(c1)[C@]1(C[C@H]1c1ccc3c(Nc4nc(C)nc(N5CC(O)C5)c4Cl)n[nH]c3c1)C(=O)N2 [Example 72, (1R,2S)-2-(3-{[5-chloro-6-(3-hydroxyazetidin-1-yl)-2-methylpyrimidin-4-yl]amino)-1H-indazol-6-yl)-5′-methoxyspiro[cyclopropane-1,3′-indol]-2′(1′H)-one] | 7.37
14 | 70.8586 | 806.5968 | 9.02 | COc1ccc2c(c1)[C@]1(C[C@H]1c1ccc3c(Nc4ccc(C(=O)N(C)OC)nc4OC)n[nH]c3c1)C(=O)N2 [Example 218, N,6-dimethoxy-5-({6-[(1R,2S)-5′-methoxy-2′-oxo-1′,2′-dihydrospiro[cyclopropane-1,3′-indol]-2-yl]-1H-indazol-3-yl}amino)-N-methylpyridine-2-carboxamide] | 7.13
15 | 170.9840 | 416.7367 | 8.92 | COc1ccc2c(c1)[C@]1(C[C@H]1c1ccc3c(Nc4nc5cccnc5cc4OC)n[nH]c3c1)C(=O)N2 [Example 217, (1R,2S)-5′-methoxy-2-{3-[(3-methoxy-1,5-naphthyridin-2-yl)amino]-1H-indazol-6-yl}spiro[cyclopropane-1,3′-indol]-2′(1′H)-one] | 6.35
